The supplement of paper PMC11451515

Test system: NOMO1
Assay: cell viability relative to DMSO control; higher = less cytotoxic
Details: 48 h
Method in brief: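 In 1536-well plates, 5 μl of leukemia cells were seeded per well: 500 cells/well for NOMO1 or SEM and 1000 cells/well for P12-Ichikawa. Each line had first been adapted for at least four passages in each medium. Library compounds in DMSO were pin-dosed at 11 threefold concentrations between 47 μM and 0.79 nM, and CellTiter-Glo One luminescence was read after 48 h at 37°C. Viability is a per-plate percentage relative to DMSO wells, with cell-free wells as background.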

[1] = HPLM + 10% dialyzed FBS, 0.000781 µM
[2] = HPLM + 10% dialyzed FBS, 0.00234 µM
[3] = HPLM + 10% dialyzed FBS, 0.00702 µM
[4] = HPLM + 10% dialyzed FBS, 0.0211 µM
[5] = HPLM + 10% dialyzed FBS, 0.0632 µM
[6] = HPLM + 10% dialyzed FBS, 0.19 µM
[7] = HPLM + 10% dialyzed FBS, 0.569 µM
[8] = HPLM + 10% dialyzed FBS, 1.71 µM
[9] = HPLM + 10% dialyzed FBS, 5.12 µM
[10] = HPLM + 10% dialyzed FBS, 15.4 µM
[11] = HPLM + 10% dialyzed FBS, 46.1 µM
[12] = RPMI 5 mM glucose + 10% FBS, 0.000781 µM
[13] = RPMI 5 mM glucose + 10% FBS, 0.00234 µM
[14] = RPMI 5 mM glucose + 10% FBS, 0.00702 µM
[15] = RPMI 5 mM glucose + 10% FBS, 0.0211 µM
[16] = RPMI 5 mM glucose + 10% FBS, 0.0632 µM
[17] = RPMI 5 mM glucose + 10% FBS, 0.19 µM
[18] = RPMI 5 mM glucose + 10% FBS, 0.569 µM
[19] = RPMI 5 mM glucose + 10% FBS, 1.71 µM
[20] = RPMI 5 mM glucose + 10% FBS, 5.12 µM
[21] = RPMI 5 mM glucose + 10% FBS, 15.4 µM
[22] = RPMI 5 mM glucose + 10% FBS, 46.1 µM
[23] = RPMI 5 mM glucose + 10% dialyzed FBS, 0.000781 µM
[24] = RPMI 5 mM glucose + 10% dialyzed FBS, 0.00234 µM
[25] = RPMI 5 mM glucose + 10% dialyzed FBS, 0.00702 µM
[26] = RPMI 5 mM glucose + 10% dialyzed FBS, 0.0211 µM
[27] = RPMI 5 mM glucose + 10% dialyzed FBS, 0.0632 µM
[28] = RPMI 5 mM glucose + 10% dialyzed FBS, 0.19 µM
[29] = RPMI 5 mM glucose + 10% dialyzed FBS, 0.569 µM
[30] = RPMI 5 mM glucose + 10% dialyzed FBS, 1.71 µM
[31] = RPMI 5 mM glucose + 10% dialyzed FBS, 5.12 µM
[32] = RPMI 5 mM glucose + 10% dialyzed FBS, 15.4 µM
[33] = RPMI 5 mM glucose + 10% dialyzed FBS, 46.1 µM

SMILES: C[C@@H]\1CC(=O)N\N=C1C2=CC=C(NN=C(C#N)C#N)C=C2
- cell viability [1]: 90.8%
- cell viability [2]: 89.5%
- cell viability [3]: 107%
- cell viability [4]: 95.5%
- cell viability [5]: 99.9%
- cell viability [6]: 90.2%
- cell viability [7]: 102%
- cell viability [8]: 87.6%
- cell viability [9]: 88.5%
- cell viability [10]: 86.8%
- cell viability [11]: 4.87%
- cell viability [12]: 93.9%
- cell viability [13]: 87.6%
- cell viability [14]: 92.6%
- cell viability [15]: 90.6%
- cell viability [16]: 87.9%
- cell viability [17]: 96.7%
- cell viability [18]: 85.7%
- cell viability [19]: 97.5%
- cell viability [20]: 89.2%
- cell viability [21]: 80%
- cell viability [22]: 7.6%
- cell viability [23]: 85.3%
- cell viability [24]: 94.7%
- cell viability [25]: 93.4%
- cell viability [26]: 90.7%
- cell viability [27]: 95.3%
- cell viability [28]: 92.6%
- cell viability [29]: 96.3%
- cell viability [30]: 89%
- cell viability [31]: 87.1%
- cell viability [32]: 83.2%
- cell viability [33]: 9.26%

SMILES: CC(C)C(=O)Nc1ccc([N+](=O)[O-])c(C(F)(F)F)c1
- cell viability [1]: 118%
- cell viability [2]: 120%
- cell viability [3]: 118%
- cell viability [4]: 128%
- cell viability [5]: 140%
- cell viability [6]: 137%
- cell viability [7]: 44%
- cell viability [8]: 39.3%
- cell viability [9]: 39%
- cell viability [10]: 42.3%
- cell viability [11]: 41.3%

SMILES: Cc1cnc(-c2cc(N3CCN(C(=O)CC[S+](C)(=O)[O-])CC3)ncc2Cl)c(C)c1
- cell viability [1]: 96.3%
- cell viability [2]: 125%
- cell viability [3]: 132%
- cell viability [4]: 126%
- cell viability [5]: 132%
- cell viability [6]: 134%
- cell viability [7]: 127%
- cell viability [8]: 129%
- cell viability [9]: 137%
- cell viability [10]: 134%
- cell viability [11]: 191%

SMILES: C/C=C1\C2C=C(C)CC1(N)c1ccc(=O)[nH]c1C2 (stereo not drawn)
- cell viability [1]: 107%
- cell viability [2]: 117%
- cell viability [3]: 113%
- cell viability [4]: 114%
- cell viability [5]: 109%
- cell viability [6]: 104%
- cell viability [7]: 117%
- cell viability [8]: 106%
- cell viability [9]: 110%
- cell viability [10]: 95.1%
- cell viability [11]: 79.4%
- cell viability [12]: 94.6%
- cell viability [13]: 96.4%
- cell viability [14]: 99.2%
- cell viability [15]: 115%
- cell viability [16]: 96.3%
- cell viability [17]: 93.7%
- cell viability [18]: 102%
- cell viability [19]: 105%
- cell viability [20]: 102%
- cell viability [21]: 91%
- cell viability [22]: 90.8%
- cell viability [23]: 90.4%
- cell viability [24]: 103%
- cell viability [25]: 96.7%
- cell viability [26]: 103%
- cell viability [27]: 108%
- cell viability [28]: 96.1%
- cell viability [29]: 94.1%
- cell viability [30]: 99.9%
- cell viability [31]: 95%
- cell viability [32]: 98.8%
- cell viability [33]: 81%

SMILES: COc1ccc(-c2ccc3c(N4CCOC[C@@H]4C)nc(N4CCOC[C@@H]4C)nc3n2)cc1CO
- cell viability [1]: 93.6%
- cell viability [2]: 76.5%
- cell viability [3]: 93.1%
- cell viability [4]: 82.1%
- cell viability [5]: 74.5%
- cell viability [6]: 64.6%
- cell viability [7]: 58.7%
- cell viability [8]: 55.1%
- cell viability [9]: 48%
- cell viability [10]: 9.86%
- cell viability [11]: 3.58%
- cell viability [12]: 103%
- cell viability [13]: 75.7%
- cell viability [14]: 94%
- cell viability [15]: 95.6%
- cell viability [16]: 90.4%
- cell viability [17]: 84.5%
- cell viability [18]: 75.1%
- cell viability [19]: 72.4%
- cell viability [20]: 63.4%
- cell viability [21]: 41.7%
- cell viability [22]: 4.25%
- cell viability [23]: 102%
- cell viability [24]: 63.9%
- cell viability [25]: 98.6%
- cell viability [26]: 86%
- cell viability [27]: 85.9%
- cell viability [28]: 69%
- cell viability [29]: 64%
- cell viability [30]: 70.5%
- cell viability [31]: 57.4%
- cell viability [32]: 52.4%
- cell viability [33]: 5.83%

SMILES: CN(C)[C@H]\1[C@@H]2C[C@H]3C(=C(O)\[C@]2(O)C(=O)\C(=C1O)C(N)=O)/C(=O)C4=C(O)C=CC=C4[C@@]3(C)O
- cell viability [1]: 104%
- cell viability [2]: 111%
- cell viability [3]: 104%
- cell viability [4]: 109%
- cell viability [5]: 111%
- cell viability [6]: 106%
- cell viability [7]: 120%
- cell viability [8]: 95.1%
- cell viability [9]: 121%
- cell viability [10]: 97.1%
- cell viability [11]: 99.6%
- cell viability [12]: 117%
- cell viability [13]: 124%
- cell viability [14]: 118%
- cell viability [15]: 125%
- cell viability [16]: 108%
- cell viability [17]: 102%
- cell viability [18]: 119%
- cell viability [19]: 110%
- cell viability [20]: 102%
- cell viability [21]: 104%
- cell viability [22]: 106%
- cell viability [23]: 104%
- cell viability [24]: 116%
- cell viability [25]: 112%
- cell viability [26]: 115%
- cell viability [27]: 112%
- cell viability [28]: 102%
- cell viability [29]: 110%
- cell viability [30]: 95%
- cell viability [31]: 110%
- cell viability [32]: 101%
- cell viability [33]: 93.4%

SMILES: CCOC(=O)C/1=C(O)/C(=O)N(CC2=CC=CC=C2)C1
- cell viability [1]: 95.4%
- cell viability [2]: 113%
- cell viability [3]: 129%
- cell viability [4]: 124%
- cell viability [5]: 110%
- cell viability [6]: 106%
- cell viability [7]: 103%
- cell viability [8]: 122%
- cell viability [9]: 114%
- cell viability [10]: 103%
- cell viability [11]: 95.6%
- cell viability [12]: 102%
- cell viability [13]: 113%
- cell viability [14]: 98.3%
- cell viability [15]: 99.2%
- cell viability [16]: 98.6%
- cell viability [17]: 99.5%
- cell viability [18]: 111%
- cell viability [19]: 95.9%
- cell viability [20]: 95.7%
- cell viability [21]: 95.7%
- cell viability [22]: 103%
- cell viability [23]: 102%
- cell viability [24]: 118%
- cell viability [25]: 110%
- cell viability [26]: 109%
- cell viability [27]: 110%
- cell viability [28]: 115%
- cell viability [29]: 105%
- cell viability [30]: 111%
- cell viability [31]: 91.2%
- cell viability [32]: 103%
- cell viability [33]: 95.1%

SMILES: CC[C@H](C)[N]1C=C(C)C2=C1C=C(C=C2C(=O)NC\C3=C(C)\C=C(\C)NC3=O)C4=CC=C(N=C4)N5CCNCC5
- cell viability [1]: 112%
- cell viability [2]: 108%
- cell viability [3]: 125%
- cell viability [4]: 131%
- cell viability [5]: 130%
- cell viability [6]: 129%
- cell viability [7]: 124%
- cell viability [8]: 104%
- cell viability [9]: 127%
- cell viability [10]: 122%
- cell viability [11]: 82.3%
- cell viability [12]: 105%
- cell viability [13]: 108%
- cell viability [14]: 121%
- cell viability [15]: 123%
- cell viability [16]: 122%
- cell viability [17]: 115%
- cell viability [18]: 126%
- cell viability [19]: 115%
- cell viability [20]: 128%
- cell viability [21]: 113%
- cell viability [22]: 102%
- cell viability [23]: 116%
- cell viability [24]: 125%
- cell viability [25]: 124%
- cell viability [26]: 127%
- cell viability [27]: 128%
- cell viability [28]: 123%
- cell viability [29]: 137%
- cell viability [30]: 138%
- cell viability [31]: 148%
- cell viability [32]: 118%
- cell viability [33]: 96.4%

SMILES: CCN1\C=C(\C(O)=O)C(=O)C2=CC=C(C)N=C12
- cell viability [1]: 75.3%
- cell viability [2]: 87.7%
- cell viability [3]: 99.4%
- cell viability [4]: 103%
- cell viability [5]: 102%
- cell viability [6]: 116%
- cell viability [7]: 95.8%
- cell viability [8]: 100%
- cell viability [9]: 81.7%
- cell viability [10]: 88.1%
- cell viability [11]: 47.4%
- cell viability [12]: 81.9%
- cell viability [13]: 103%
- cell viability [14]: 98.2%
- cell viability [15]: 89.1%
- cell viability [16]: 103%
- cell viability [17]: 96.6%
- cell viability [18]: 100%
- cell viability [19]: 91%
- cell viability [20]: 99.9%
- cell viability [21]: 90.6%
- cell viability [22]: 56%
- cell viability [23]: 66.6%
- cell viability [24]: 76.6%
- cell viability [25]: 71.2%
- cell viability [26]: 80.1%
- cell viability [27]: 83.2%
- cell viability [28]: 83.5%
- cell viability [29]: 80.5%
- cell viability [30]: 89.5%
- cell viability [31]: 82.5%
- cell viability [32]: 81.6%
- cell viability [33]: 61.7%
